How the values were obtained:
Assay in all cases: relative viability vs DMSO control (72 h) (fraction); higher = more viable cells
A204 = test system: A204
Method in brief: (§1)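 Sarcoma cell lines were seeded in 384-well plates at densities chosen for 80–90% confluence, then 24 h later given 2.5 µl of serially diluted compound drawn from source plates spanning 10 mM to 0.0002 mM. They were held 72 h at 37 °C, 5% CO2, with 0.1% DMSO vehicle and a 5 µM positive control included. Relative viability was read with ATPLite as percent growth and averaged over up to triplicate wells. Rescaling placed full at 1 and none at 0.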

G401 = test system: G401
Method in brief: as §1

HT1080 = test system: HT1080
Method in brief: as §1

KHOS-240S = test system: KHOS-240S
Method in brief: as §1

KHOS-NP = test system: KHOS-NP
Method in brief: as §1

RD-ES = test system: RD-ES
Method in brief: as §1

SK-ES-1 = test system: SK-ES-1
Method in brief: as §1

SW1353 = test system: SW1353
Method in brief: as §1

SW684 = test system: SW684
Method in brief: as §1

SW872 = test system: SW872
Method in brief: as §1

SW982 = test system: SW982
Method in brief: as §1

SYO-1 = test system: SYO-1
Method in brief: as §1

Cc1cn(-c2cc(NC(=O)c3ccc(C)c(Nc4nccc(-c5cccnc5)n4)c3)cc(C(F)(F)F)c2)cn1 [Nilotinib]
Conditions	relative viability
A204, 0.00017 µM	1
A204, 0.00051 µM	0.979
A204, 0.00152 µM	1.03
A204, 0.00457 µM	1.04
A204, 0.01372 µM	1.05
A204, 0.04115 µM	1.074
A204, 0.1235 µM	1.01
A204, 0.3704 µM	0.662
A204, 1.111 µM	0.421
A204, 3.333 µM	0.34
A204, 10 µM	0.345
G401, 0.00017 µM	0.944
G401, 0.00051 µM	0.963
G401, 0.00152 µM	0.968
G401, 0.00457 µM	0.963
G401, 0.01372 µM	0.979
G401, 0.04115 µM	0.982
G401, 0.1235 µM	0.995
G401, 0.3704 µM	0.923
G401, 1.111 µM	0.865
G401, 3.333 µM	0.795
G401, 10 µM	0.737
HT1080, 0.00017 µM	1.02
HT1080, 0.00051 µM	0.997
HT1080, 0.00152 µM	0.964
HT1080, 0.00457 µM	1.01
HT1080, 0.01372 µM	1.04
HT1080, 0.04115 µM	0.991
HT1080, 0.1235 µM	1.03
HT1080, 0.3704 µM	1
HT1080, 1.111 µM	0.993
HT1080, 3.333 µM	1.02
HT1080, 10 µM	0.889
KHOS-240S, 0.00017 µM	1.04
KHOS-240S, 0.00051 µM	1.02
KHOS-240S, 0.00152 µM	1.03
KHOS-240S, 0.00457 µM	1.02
KHOS-240S, 0.01372 µM	1.03
KHOS-240S, 0.04115 µM	1.01
KHOS-240S, 0.1235 µM	0.999
KHOS-240S, 0.3704 µM	0.998
KHOS-240S, 1.111 µM	0.907
KHOS-240S, 3.333 µM	0.847
KHOS-240S, 10 µM	0.658
KHOS-NP, 0.00017 µM	1.038
KHOS-NP, 0.00051 µM	1.05
KHOS-NP, 0.00152 µM	1.04
KHOS-NP, 0.00457 µM	1.05
KHOS-NP, 0.01372 µM	1.02
KHOS-NP, 0.04115 µM	1.02
KHOS-NP, 0.1235 µM	1.044
KHOS-NP, 0.3704 µM	1.03
KHOS-NP, 1.111 µM	1.04
KHOS-NP, 3.333 µM	1.02
KHOS-NP, 10 µM	0.929
RD-ES, 0.00017 µM	0.934
RD-ES, 0.00051 µM	0.919
RD-ES, 0.00152 µM	0.927
RD-ES, 0.00457 µM	0.938
RD-ES, 0.01372 µM	0.925
RD-ES, 0.04115 µM	0.936
RD-ES, 0.1235 µM	0.912
RD-ES, 0.3704 µM	0.883
RD-ES, 1.111 µM	0.826
RD-ES, 3.333 µM	0.702
RD-ES, 10 µM	0.714
SK-ES-1, 0.00017 µM	0.966
SK-ES-1, 0.00051 µM	0.958
SK-ES-1, 0.00152 µM	0.951
SK-ES-1, 0.00457 µM	0.919
SK-ES-1, 0.01372 µM	0.954
SK-ES-1, 0.04115 µM	0.975
SK-ES-1, 0.1235 µM	0.997
SK-ES-1, 0.3704 µM	0.908
SK-ES-1, 1.111 µM	0.788
SK-ES-1, 3.333 µM	0.55
SK-ES-1, 10 µM	0.484
SW684, 0.00017 µM	1.04
SW684, 0.00051 µM	1.07
SW684, 0.00152 µM	1.09
SW684, 0.00457 µM	1.07
SW684, 0.01372 µM	1.07
SW684, 0.04115 µM	1.12
SW684, 0.1235 µM	1.21
SW684, 0.3704 µM	1.32
SW684, 1.111 µM	1.26
SW684, 3.333 µM	1.24
SW684, 10 µM	1.15
SW872, 0.00017 µM	0.959
SW872, 0.00051 µM	0.91
SW872, 0.00152 µM	0.924
SW872, 0.00457 µM	0.926
SW872, 0.01372 µM	0.948
SW872, 0.04115 µM	0.971
SW872, 0.1235 µM	1.01
SW872, 0.3704 µM	0.999
SW872, 1.111 µM	0.94
SW872, 3.333 µM	0.796
SW872, 10 µM	0.766
SW982, 0.00017 µM	0.977
SW982, 0.00051 µM	0.983
SW982, 0.00152 µM	0.957
SW982, 0.00457 µM	0.974
SW982, 0.01372 µM	0.988
SW982, 0.04115 µM	0.994
SW982, 0.1235 µM	0.987
SW982, 0.3704 µM	0.998
SW982, 1.111 µM	0.973
SW982, 3.333 µM	0.902
SW982, 10 µM	0.727
SW1353, 0.00017 µM	0.933
SW1353, 0.00051 µM	0.951
SW1353, 0.00152 µM	0.935
SW1353, 0.00457 µM	0.967
SW1353, 0.01372 µM	0.969
SW1353, 0.04115 µM	1.01
SW1353, 0.1235 µM	1.05
SW1353, 0.3704 µM	1.09
SW1353, 1.111 µM	1.08
SW1353, 3.333 µM	0.994
SW1353, 10 µM	0.846
SYO-1, 0.00017 µM	0.904
SYO-1, 0.00051 µM	0.868
SYO-1, 0.00152 µM	0.899
SYO-1, 0.00457 µM	0.865
SYO-1, 0.01372 µM	0.818
SYO-1, 0.04115 µM	0.84
SYO-1, 0.1235 µM	0.802
SYO-1, 0.3704 µM	0.6513
SYO-1, 1.111 µM	0.598
SYO-1, 3.333 µM	0.522
SYO-1, 10 µM	0.446

— the supplement of paper PMC10883282
